We go through nine compounds from PubChem BioAssay (NCI).

Among the test systems are CCRF-CEM leukemia; A498 renal; MALME-3M melanoma; OVCAR-4 ovarian; HCT-116 colon; UACC-62 melanoma; SF-268 CNS; SW-620 colon; EKVX NSCLC; SK-MEL-2 melanoma.
Assay in all cases: NCI-60 cell line screen, 48 h

Where “and” joins values, the source holds several entries; their conditions need not be identical. Equal entries are not always repeated.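 The compound was tested at five concentrations on cells cultured in 96-well plates, with a 48-hour exposure period. Abbreviation: GI50, concentration required for 50% inhibition of growth. At the TGI there is no net growth.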

Consider `C[C@@H]1C=C(CCCCCCCCCCC[C@H](O)[C@@H]2CCC(=O)O2)C(=O)O1`, for which the GI50 is 17.6 µM in the experiment with CCRF-CEM leukemia; 25.6 µM in the experiment on A498 renal; 19.1 µM in the experiment with MALME-3M melanoma; more than 100 µM in the experiment with OVCAR-4 ovarian; 28 µM in the experiment with HCT-116 colon; 21.2 µM with UACC-62 melanoma. Moreover, the GI50 with SF-268 CNS was 40.3 µM; in the experiment on SW-620 colon, 37.6 µM; with EKVX NSCLC it was 33.2 µM; with SK-MEL-2 melanoma, 40.8 µM. Moreover, the TGI in the experiment on CCRF-CEM leukemia was 47.4 µM; in the experiment with A498 renal, 68.7 µM; with MALME-3M melanoma it was 46.6 µM; in the experiment with OVCAR-4 ovarian it was more than 100 µM; in the experiment on HCT-116 colon it was more than 100 µM; in the experiment on UACC-62 melanoma, 85.7 µM. Also, the TGI in the experiment with SF-268 CNS, in the experiment with SW-620 colon, in the experiment with EKVX NSCLC and in the experiment with SK-MEL-2 melanoma was more than 100 µM each time.

Turning to `COC(=O)C1CC(C(=O)OC)c2nc3cc(C)ccc3nc21` (stereo not given), the TGI with CCRF-CEM leukemia, in the experiment with A498 renal, in the experiment on MALME-3M melanoma, in the experiment with OVCAR-4 ovarian, in the experiment with UACC-62 melanoma and in the experiment with SF-268 CNS was more than 100 µM in each case. Also, the TGI with SW-620 colon, in the experiment with EKVX NSCLC and in the experiment with SK-MEL-2 melanoma was more than 100 µM in each case.

On to `CSc1nc(NC2OCC(OC(C)=O)C(OC(C)=O)C2OC(C)=O)c2c(OC(C)=O)c(C)c(=O)oc2n1` (stereo not given), for which the TGI in the experiment with CCRF-CEM leukemia, in the experiment with A498 renal, with MALME-3M melanoma, in the experiment with OVCAR-4 ovarian, in the experiment with HCT-116 colon and in the experiment with UACC-62 melanoma was more than 100 µM each time. The TGI with SW-620 colon, with EKVX NSCLC and in the experiment with SK-MEL-2 melanoma was more than 100 µM each time.

Regarding `O=C(O)C(=Cc1ccnc2ccccc12)C(=O)O`, the TGI with CCRF-CEM leukemia, with A498 renal, in the experiment on MALME-3M melanoma, with HCT-116 colon, in the experiment with UACC-62 melanoma and with SF-268 CNS was more than 100 µM in each case. Besides, the TGI in the experiment with SW-620 colon, in the experiment with EKVX NSCLC and in the experiment on SK-MEL-2 melanoma was more than 100 µM each time.

For the compound `N#Cc1c(C(=O)c2ccccc2)cnn1-c1ccccc1`, the GI50 in the experiment with CCRF-CEM leukemia, in the experiment with A498 renal, in the experiment with MALME-3M melanoma, in the experiment with OVCAR-4 ovarian, with HCT-116 colon and in the experiment with UACC-62 melanoma was more than 25 µM throughout. The GI50 with SF-268 CNS, in the experiment on SW-620 colon and with SK-MEL-2 melanoma was more than 25 µM each time. The TGI with CCRF-CEM leukemia, in the experiment on A498 renal, in the experiment with MALME-3M melanoma, in the experiment with OVCAR-4 ovarian, in the experiment on HCT-116 colon and with UACC-62 melanoma was more than 25 µM throughout. Also, the TGI in the experiment on SF-268 CNS, in the experiment with SW-620 colon and with SK-MEL-2 melanoma was more than 25 µM each time.

Take `O=c1cc(C(F)(F)F)c2cc3c(cc2o1)NCCC3`: the TGI with CCRF-CEM leukemia, in the experiment with A498 renal, in the experiment on MALME-3M melanoma, in the experiment with OVCAR-4 ovarian, in the experiment with HCT-116 colon and in the experiment with SF-268 CNS was more than 100 µM in each case. Moreover, the TGI in the experiment on SW-620 colon, in the experiment on EKVX NSCLC and in the experiment with SK-MEL-2 melanoma was more than 100 µM throughout.

Regarding `COc1ccc(C=C2C(=O)OC(C)(C)OC2=O)cc1OC`, the TGI in the experiment with CCRF-CEM leukemia, in the experiment with A498 renal, with MALME-3M melanoma, with OVCAR-4 ovarian, in the experiment with UACC-62 melanoma and with SF-268 CNS was more than 100 µM each time. The TGI with SW-620 colon, in the experiment with EKVX NSCLC and in the experiment on SK-MEL-2 melanoma was more than 100 µM in each case.

With `O=C1C=C[C@@]23CC1C(O)C[C@H]2C=Cc1ccccc13` (stereo not given in full), the TGI in the experiment with CCRF-CEM leukemia, with A498 renal, in the experiment on MALME-3M melanoma, with OVCAR-4 ovarian, in the experiment on HCT-116 colon and in the experiment with UACC-62 melanoma was more than 100 µM each time. In addition, the TGI with SF-268 CNS, with SW-620 colon and in the experiment on SK-MEL-2 melanoma was more than 100 µM in each case.

Consider `COc1c(O)c2c(c3cc(C(=O)N4CCc5c4c(O)c(OC)c4[nH]c(C(=O)N6CC7CC78C6=CC(=O)c6[nH]cc(C)c68)cc54)[nH]c13)CCN2C(N)=O` (stereo not given), for which the GI50 in the experiment on CCRF-CEM leukemia was 0.00439 mg/L; in the experiment on OVCAR-4 ovarian it was 420 nM and 0.0198 µg/mL; with EKVX NSCLC, 0.00694 mg/L; with SK-MEL-2 melanoma it was 0.0187 mg/L. For the same compound, the TGI was 963 nM and 0.0344 µg/mL in the experiment on CCRF-CEM leukemia; 6.94 nM and 247 nM and 0.0354 µg/mL in the experiment with A498 renal; 5.23 nM and 1.02 µM and 0.00419 µg/mL with MALME-3M melanoma; 2.91 µM and 0.0729 µg/mL with OVCAR-4 ovarian; 5.3 nM and 688 nM and 0.00323 µg/mL with UACC-62 melanoma; 47.4 nM and > 100 µM and 0.00521 µg/mL with SF-268 CNS. In addition, the TGI in the experiment with SW-620 colon was 3.46 nM and 456 nM and 0.0038 µg/mL; in the experiment with EKVX NSCLC, > 100 µM and 0.0904 µg/mL; in the experiment with SK-MEL-2 melanoma it was 0.0349 mg/L.
